The record followed here is patent publication US8513238B2 (Hoffmann-La Roche Inc., priority 2010, dated 2013).

Counter-ions that a name gives are not always drawn.

T1 sequence (P37288 whole entry): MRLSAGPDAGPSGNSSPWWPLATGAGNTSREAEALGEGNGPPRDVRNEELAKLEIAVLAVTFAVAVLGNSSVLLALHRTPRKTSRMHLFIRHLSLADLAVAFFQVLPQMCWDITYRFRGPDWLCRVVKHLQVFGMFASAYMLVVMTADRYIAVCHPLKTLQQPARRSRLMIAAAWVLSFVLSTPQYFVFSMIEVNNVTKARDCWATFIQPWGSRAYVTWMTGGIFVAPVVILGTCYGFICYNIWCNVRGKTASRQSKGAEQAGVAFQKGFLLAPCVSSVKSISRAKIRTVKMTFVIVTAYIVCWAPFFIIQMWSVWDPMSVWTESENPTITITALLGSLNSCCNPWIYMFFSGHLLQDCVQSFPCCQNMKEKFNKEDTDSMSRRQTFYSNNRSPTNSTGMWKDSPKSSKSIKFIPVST

This assay concerns the target T1, human V1a receptor (Homo sapiens, UniProt P37288).
T1 construct: expressed in transfected cells; host or cells: HEK293 cells, transiently transfected; membranes prepared
In words: human V1a receptor binding (3H-Vasopressin SPA, HEK293 membranes). The note with it: membranes of HEK293 cells transiently transfected with human V1a receptor, Ki by Cheng-Prussoff, read-out: pKi (hV1a) (converted). The essentials: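 HEK293 membranes transiently expressing cloned human V1a receptor, bound to yttrium silicate SPA beads in Tris/NaCl/KCl/CaCl2/MgCl2 buffer. Test compounds in 2% DMSO competed with 3H-vasopressin (4 nM solution added) for 1 h at room temperature; non-specific binding defined with cold vasopressin. IC50 from non-linear fit, Ki via Cheng-Prusoff.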
For the molecule `Cc1nc([C@H]2CC[C@H](c3nnc4n3-c3ccc(Cl)cc3CN(C)C4)CC2)no1` [Example 74, trans-8-Chloro-5-methyl-1-[4-(5-methyl-[1,2,4]oxadiazol-3-yl)-cyclohexyl]-5,6-dihydro-4H-2,3,5,10b-tetraaza-benzo[e]azulene], the Ki is 0.00324 µM.

With `CCN1Cc2cc(Cl)ccc2-n2c(nnc2[C@H]2CC[C@H](c3noc(C)n3)CC2)C1` [Example 75, trans-8-Chloro-5-ethyl-1-[4-(5-methyl-[1,2,4]oxadiazol-3-yl)-cyclohexyl]-5,6-dihydro-4H-2,3,5,10b-tetraaza-benzo[e]azulene], the Ki is 0.00676 µM.

For the molecule `Cc1nc([C@H]2CC[C@H](c3nnc4n3-c3ccc(Cl)cc3CN(C(C)C)C4)CC2)no1` [Example 76, trans-8-Chloro-5-isopropyl-1-[4-(5-methyl-[1,2,4]oxadiazol-3-yl)-cyclohexyl]-5,6-dihydro-4H-2,3,5,10b-tetraaza-benzo[e]azulene], the Ki is 0.01 µM. As to `Cc1nc([C@H]2CC[C@H](c3nnc4n3-c3ccc(Cl)cc3CN(C3CCC3)C4)CC2)no1` [Example 77, trans-8-Chloro-5-cyclobutyl-1-[4-(5-methyl-[1,2,4]oxadiazol-3-yl)-cyclohexyl]-5,6-dihydro-4H-2,3,5,10b-tetraaza-benzo[e]azulene], the Ki is 0.00151 µM.

With `Cc1nc([C@H]2CC[C@H](c3nnc4n3-c3ccc(Cl)cc3CN(C3CCCC3)C4)CC2)no1` [Example 78, trans-8-Chloro-5-cyclopentyl-1-[4-(5-methyl-[1,2,4]oxadiazol-3-yl)-cyclohexyl]-5,6-dihydro-4H-2,3,5,10b-tetraaza-benzo[e]azulene], the Ki was 0.00589 µM.

As for `Cc1nc([C@H]2CC[C@H](c3nnc4n3-c3ccc(Cl)cc3CN(CC(F)F)C4)CC2)no1` [Example 79, trans-8-Chloro-5-(2,2-difluoro-ethyl)-1-[4-(5-methyl-[1,2,4]oxadiazol-3-yl)-cyclohexyl]-5,6-dihydro-4H-2,3,5,10b-tetraaza-benzo[e]azulene], the Ki was 0.00339 µM. For `CC(=O)N1Cc2cc(Cl)ccc2-n2c(nnc2[C@H]2CC[C@H](c3noc(C)n3)CC2)C1` [Example 80, trans-1-{8-Chloro-1-[4-(5-methyl-[1,2,4]oxadiazol-3-yl)-cyclohexyl]-4H,6H-2,3,5,10b-tetraaza-benzo[e]azulen-5-yl}-ethanone], the Ki was 0.0229 µM.

For the molecule `Cc1nc([C@H]2CC[C@H](c3nnc4n3-c3ccc(Cl)cc3CN(S(C)(=O)=O)C4)CC2)no1` [Example 81, trans-8-Chloro-5-methanesulfonyl-1-[4-(5-methyl-[1,2,4]oxadiazol-3-yl)-cyclohexyl]-5,6-dihydro-4H-2,3,5,10b-tetraaza-benzo[e]azulene], the Ki was 0.00427 µM. Turning to `Cc1nc([C@H]2CC[C@@H](c3nnc4n3-c3ccc(Cl)cc3CN(C(=O)OC(C)(C)C)C4)CC2)no1` [Example 82, cis-8-Chloro-1-[4-(5-methyl-[1,2,4]oxadiazol-3-yl)-cyclohexyl]-4H,6H-2,3,5,10b-tetraaza-benzo[e]azulene-5-carboxylic acid tert-butyl ester], the Ki was 0.0148 µM. Take `Cc1nc([C@H]2CC[C@@H](c3nnc4n3-c3ccc(Cl)cc3CNC4)CC2)no1` [Example 83, cis-8-Chloro-1-[4-(5-methyl-[1,2,4]oxadiazol-3-yl)-cyclohexyl]-5,6-dihydro-4H-2,3,5,10b-tetraaza-benzo[e]azulene hydrochloride]: the Ki is 0.617 µM. For `Cc1nc([C@H]2CC[C@@H](c3nnc4n3-c3ccc(Cl)cc3CN(C)C4)CC2)no1` [Example 84, cis-8-Chloro-5-methyl-1-[4-(5-methyl-[1,2,4]oxadiazol-3-yl)-cyclohexyl]-5,6-dihydro-4H-2,3,5,10b-tetraaza-benzo[e]azulene], the Ki is 0.135 µM. Regarding `CCc1nc([C@H]2CC[C@@H](c3nnc4n3-c3ccc(Cl)cc3CN(C(=O)OC(C)(C)C)C4)CC2)no1` [Example 85, cis-8-Chloro-1-[4-(5-ethyl-[1,2,4]oxadiazol-3-yl)-cyclohexyl]-4H,6H-2,3,5,10b-tetraaza-benzo[e]azulene-5-carboxylic acid tert-butyl ester], the Ki was 0.0407 µM. In the case of `CCc1nc([C@H]2CC[C@H](c3nnc4n3-c3ccc(Cl)cc3CN(C(=O)OC(C)(C)C)C4)CC2)no1` [Example 86, trans-8-Chloro-1-[4-(5-ethyl-[1,2,4]oxadiazol-3-yl)-cyclohexyl]-4H,6H-2,3,5,10b-tetraaza-benzo[e]azulene-5-carboxylic acid tert-butyl ester], the Ki is 0.00309 µM. Consider `CCc1nc([C@H]2CC[C@H](c3nnc4n3-c3ccc(Cl)cc3CNC4)CC2)no1` [Example 87, trans-8-Chloro-1-[4-(5-ethyl-[1,2,4]oxadiazol-3-yl)-cyclohexyl]-5,6-dihydro-4H-2,3,5,10b-tetraaza-benzo[e]azulene hydrochloride], for which the Ki is 0.145 µM. For the molecule `CCc1nc([C@H]2CC[C@H](c3nnc4n3-c3ccc(Cl)cc3CN(C)C4)CC2)no1` [Example 88], the Ki was 0.0145 µM. The same measure for `CCc1nc([C@H]2CC[C@@H](c3nnc4n3-c3ccc(Cl)cc3CNC4)CC2)no1` [Example 89, cis-8-Chloro-1-[4-(5-ethyl-[1,2,4]oxadiazol-3-yl)-cyclohexyl]-5,6-dihydro-4H-2,3,5,10b-tetraaza-benzo[e]azulene hydrochloride]: 2.75 µM. As for `CCc1nc([C@H]2CC[C@@H](c3nnc4n3-c3ccc(Cl)cc3CN(C)C4)CC2)no1` [Example 90], the Ki is 0.295 µM. Turning to `CC(C)c1nc([C@H]2CC[C@@H](c3nnc4n3-c3ccc(Cl)cc3CN(C(=O)OC(C)(C)C)C4)CC2)no1` [Example 91, cis-8-Chloro-1-[4-(5-isopropyl-[1,2,4]oxadiazol-3-yl)-cyclohexyl]-4H,6H-2,3,5,10b-tetraaza-benzo[e]azulene-5-carboxylic acid tert-butyl ester], the Ki is 0.0347 µM. Take `CC(C)c1nc([C@H]2CC[C@H](c3nnc4n3-c3ccc(Cl)cc3CN(C(=O)OC(C)(C)C)C4)CC2)no1` [Example 92, trans-8-Chloro-1-[4-(5-isopropyl-[1,2,4]oxadiazol-3-yl)-cyclohexyl]-4H,6H-2,3,5,10b-tetraaza-benzo[e]azulene-5-carboxylic acid tert-butyl ester]: the Ki was 0.00309 µM.

Take `CC(C)c1nc([C@H]2CC[C@H](c3nnc4n3-c3ccc(Cl)cc3CNC4)CC2)no1` [Example 93, trans-8-Chloro-1-[4-(5-isopropyl-[1,2,4]oxadiazol-3-yl)-cyclohexyl]-5,6-dihydro-4H-2,3,5,10b-tetraaza-benzo[e]azulene hydrochloride]: the Ki is 0.263 µM. Then `CC(C)c1nc([C@H]2CC[C@H](c3nnc4n3-c3ccc(Cl)cc3CN(C)C4)CC2)no1` [Example 94], with 0.0195 µM; and `CC(C)c1nc([C@H]2CC[C@@H](c3nnc4n3-c3ccc(Cl)cc3CNC4)CC2)no1` [Example 95, cis-8-Chloro-1-[4-(5-isopropyl-[1,2,4]oxadiazol-3-yl)-cyclohexyl]-5,6-dihydro-4H-2,3,5,10b-tetraaza-benzo[e]azulene hydrochloride], with 2.95 µM. Regarding `CC(C)c1nc([C@H]2CC[C@@H](c3nnc4n3-c3ccc(Cl)cc3CN(C)C4)CC2)no1` [Example 96], the Ki was 0.204 µM.
